Results reported in patent US12527849B2, “Apparatus for determining administration form of a composition of an engineered virus-based nanoparticle for a treatment of an autoimmune condition” (Diamante Srl, priority 2021, dated 2026).

Tests used:
Type in all cases: in vivo
Settings in all cases: Dexamethasone oral 1 mg/kg, 20 times between day 28 and 57
[1] = tested on: IFN-γ; assay: Pro-inflammatory cytokines in sera of CIA Collagen mice (ELISA, day 58): IFN-γ
Method: (§1) Critical administration 124 disclosed herein is further described below. Q5D represents administration 5 days a part. TBSV·pLIp1 and wt TBSV shown in Table 1 may include liquid form that are not sterile and stored in −20° C. TBSV·pLIp1 may be given at the dose of 50 μG/100 μL Male DBA/1J mice (8 weeks; Envigo, Italy) may be used for these studies. Mice may be housed in individual cages (two for each group) and maintained under a 12:12 light-dark cycle at 21° C.±1° C. and 50%±5% humidity. The animals may be acclimated to their environment for 1 week and had ad libitum access to tap water and standard rodent diet. All animal experiments may be complied with regulations in Italy (D.M. 116192), Europe (O.J of E.C. L 358/112/18/1986), and the United States (Animal Welfare Assurance Number A5594-01, Department of Health and Human Services, USA). […] Arthritis was assessed by using qualitative severity score system and hind paw volume (mL) measured by a plethysmometer on day 20, 22, 24, 26, 28, 30, 32, 34, 36, 38, 40, 42, 44, 46 48, 50, 52, 54, 56 and 58. Body weight was recorded on day 0, 6, 13, 16, 18, 20, 22, 24, 26, 28, 30, 32, 34, 36, 38, 40, 42, 44, 46, 50, 52, 54, 56 and 58. […]

[2] = tested on: IL-1β; assay: Pro-inflammatory cytokines in sera of CIA Collagen mice (ELISA, day 58): IL-1β
Method: as §1

[3] = tested on: IL-6; assay: Pro-inflammatory cytokines in sera of CIA Collagen mice (ELISA, day 58): IL-6
Method: as §1

C[C@@H]1C[C@H]2[C@@H]3CCC4=CC(=O)C=C[C@]4(C)[C@@]3(F)[C@@H](O)C[C@]2(C)[C@@]1(O)C(=O)CO [Dexamethasone, dexamethasone]
IFN-γ, % of reduction vs CIA Collagen [1]: 37.39% | IL-1β, % of reduction vs CIA Collagen [2]: 22.74% | IL-6, % of reduction vs CIA Collagen [3]: 40.13%
